{"source": "patent US8999393B1", "about": "“Sustained release formulations of lorazepam” (Edgemont Pharmaceuticals LLC, priority 2013, dated 2015)", "origin": "cited, not measured here", "key": {"[1]": {"conditions": "according to the package insert"}}, "data": [{"smiles": "O=C1Nc2ccc(Cl)cc2C(c2ccccc2Cl)=NC1O", "note": "(racemic) [lorazepam, ±7-chloro-5-(2-chlorophenyl)-1,3-dihydro-3-hydroxy-2H-1,4-benzodiazepin-2-one]", "values": [{"measurement": "solubility in water", "result": "almost insoluble"}, {"measurement": "half-life in human plasma", "setting": "[1]", "result": "about 12 hours"}]}]}
